Here are results for three compounds from patent US9193736B2, “PDE 10a inhibitors for the treatment of type II diabetes” (Janssen Pharmaceutica, NV, priority 2013, dated 2015).

For data set [1], the target named is Human recombinant PDE10A2 (Homo sapiens (Human), UniProt Q9Y233). Put plainly: In vitro hPDE10a: human recombinant PDE10A2 scintillation proximity assay, IC50. The data set is classed as biochemical. The settings on record: human recombinant PDE10A2, SPA, 60 nM cAMP; read-out: hPDE10a2 IC50. In short, it runs like this: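 Purified recombinant human PDE10A2 (Ni-sepharose) was assayed by SPA, counting [3H]-AMP product captured on yttrium silicate beads added in zinc sulphate stop solution. Inhibition was expressed as % of activity without compound, with a no-enzyme low control. Repeat data points were aggregated.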
Human recombinant PDE10A2, sequence (Q9Y233 267-1055): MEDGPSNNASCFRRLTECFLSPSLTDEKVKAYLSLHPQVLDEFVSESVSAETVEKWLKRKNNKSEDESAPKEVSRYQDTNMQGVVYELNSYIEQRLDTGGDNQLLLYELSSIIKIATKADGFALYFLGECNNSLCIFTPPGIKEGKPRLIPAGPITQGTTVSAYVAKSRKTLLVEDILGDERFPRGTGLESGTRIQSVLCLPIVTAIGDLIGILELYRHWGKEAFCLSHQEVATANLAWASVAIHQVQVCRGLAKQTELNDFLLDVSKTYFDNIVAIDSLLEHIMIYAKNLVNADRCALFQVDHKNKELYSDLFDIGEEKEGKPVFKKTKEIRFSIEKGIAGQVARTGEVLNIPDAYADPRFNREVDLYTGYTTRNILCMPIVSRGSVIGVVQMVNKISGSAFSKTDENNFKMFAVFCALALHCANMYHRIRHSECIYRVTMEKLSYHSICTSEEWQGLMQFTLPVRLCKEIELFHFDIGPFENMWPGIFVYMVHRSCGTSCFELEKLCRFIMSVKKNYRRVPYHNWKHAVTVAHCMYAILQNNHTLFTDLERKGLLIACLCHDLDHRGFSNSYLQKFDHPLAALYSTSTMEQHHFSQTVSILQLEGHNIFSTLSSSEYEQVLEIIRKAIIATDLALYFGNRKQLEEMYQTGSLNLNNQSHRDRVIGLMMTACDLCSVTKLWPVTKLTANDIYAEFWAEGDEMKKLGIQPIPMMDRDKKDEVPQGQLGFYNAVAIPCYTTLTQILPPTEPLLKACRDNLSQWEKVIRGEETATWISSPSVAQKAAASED

The conditions of data set [2]: rat, in vivo.
Procedure: PDE10a-Brain Permeability Assay
(§1) A. PDE10a-Perfused Brain Permeability Study Protocol
(§2) Drug administration by oral gavage, subcutaneous injection or intravenous was carried out using male Sprague Dawley rats under IACUC protocol (SH-MET3010). Male Sprague Dawley rats (Charles River) ˜300-350 g were maintained on a 4% standard rodent diet (Test Diet 5001). They are allowed ad libitum access to water and food. Room temperature was maintained at 64° F. and humidity at 30-70%.
(§3) Three animals per compound were provided a dose of 2 mg/mL in 20% HpbCD/Tris pH 8 by tail i.v. or 30 mpk p.o. or s.c. in 20% HpbCD/Tris pH 8, with PDE10a antagonists. A first blood sample was collected at 30 min via retro-orbital sinus (anesthetic by 70% CO2/30% O2) into heparinzed plasma separator tubes. The blood was centrifuged and 100 μL plasma was placed into a 96 well plate and saved on dry ice.
(§4) After the 120 min, the final blood sample was collected via retro-orbital sinus under anesthesia by IP 0.5 cc injection of a 4/1 mixture of Ketaset: AnaSed [(prepared 10 mL Ketaset (100 mg/mL Ketamine)+2.5 mL AnaSed (20 mg/mL Xylazine)]. The rats were then perfused with 400 mL heparinized saline (10,000 units/L) through the left ventricle of the heart; the brains were then removed (not including the medulla), weighed and homogenized in PBS (4 mL/g tissue). The samples were stored at −80° C. and submitted for chemical analysis of blood and brain concentrations. Endpoints of sample analysis consists of the plasma concentrations at 30 and 120 min, plus brain concentrations at 120 min.
Data set [3] concerns the target Rat recombinant PDE10a (rPDE10a) (Rattus norvegicus (Rat), UniProt Q9QYJ6). The data set is described as follows: In vitro assay PDE10a: rat recombinant PDE10a SPA with 3H-cAMP substrate, IC50. The data set is classed as biochemical. The settings on record: 60 nM cAMP, read-out: rPDE10a2 IC50. The essentials:
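Enzyme expressed in Sf9 cells via baculovirus and Ni-sepharose purified; reaction with 3H-cAMP ran 60 min at rt, stopped with PDE SPA beads. Compounds diluted in DMSO at 100-fold final concentration; blanks omitted enzyme.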

Data set [4] is described as follows: PDE10a perfused brain permeability study: plasma concentrations at 30 and 120 min, brain concentration at 120 min, brain/plasma ratio. The settings on record: male, Sprague-Dawley, rat; for Kp at 2 h: brain/plasma.
Procedure: PDE10a-Brain Permeability Assay
as §1, §2, §3, §4

Rat recombinant PDE10a (rPDE10a), sequence (Q9QYJ6 whole entry): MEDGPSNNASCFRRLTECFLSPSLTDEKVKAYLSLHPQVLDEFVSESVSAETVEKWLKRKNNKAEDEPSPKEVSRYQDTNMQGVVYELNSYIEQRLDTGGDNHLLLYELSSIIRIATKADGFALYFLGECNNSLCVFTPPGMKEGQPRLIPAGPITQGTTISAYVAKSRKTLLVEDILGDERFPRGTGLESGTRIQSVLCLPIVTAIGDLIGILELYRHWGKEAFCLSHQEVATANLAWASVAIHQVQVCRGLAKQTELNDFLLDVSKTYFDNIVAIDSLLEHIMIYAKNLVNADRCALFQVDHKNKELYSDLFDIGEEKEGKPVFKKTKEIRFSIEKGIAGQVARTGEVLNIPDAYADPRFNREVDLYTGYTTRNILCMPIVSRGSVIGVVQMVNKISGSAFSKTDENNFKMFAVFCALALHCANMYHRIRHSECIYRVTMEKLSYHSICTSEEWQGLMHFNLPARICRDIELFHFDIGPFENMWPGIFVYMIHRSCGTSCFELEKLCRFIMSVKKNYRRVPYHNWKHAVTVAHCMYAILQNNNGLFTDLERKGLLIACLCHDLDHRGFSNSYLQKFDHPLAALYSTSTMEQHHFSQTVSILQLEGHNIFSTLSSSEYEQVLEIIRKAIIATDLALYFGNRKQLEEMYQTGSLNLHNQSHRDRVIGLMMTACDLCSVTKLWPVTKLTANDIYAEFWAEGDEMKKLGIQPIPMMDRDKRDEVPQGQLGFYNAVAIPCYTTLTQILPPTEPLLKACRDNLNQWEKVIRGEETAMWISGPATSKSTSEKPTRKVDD

As to `O=C(O)CCc1ccc(-c2c([C@H]3C[C@H](c4ccc5ccccc5n4)C3)nc3c(N4CCOCC4)ccnn23)cc1` [compound 169, 3-(4-(8-Morpholino-2-((1r,3r)-3-(quinolin-2-yl)cyclobutyl)imidazo[1,2-b]pyridazin-3-yl)phenyl)propanoic acid], in data set [1], the half-inhibitory concentration (IC50) is 2 nM. Also, in data set [2], the “Brain conc 2 h” value worked out at 0 ng/g, the “Plasma conc 2 h” value is reported as 106 ng/mL and the “Ratio Br/Pl Mean 2 h” value worked out at 0.

For the compound `O=c1[nH]c(-c2ccc(-c3c(/C=C/c4ccc5ccccc5n4)nc4c(N5CCOCC5)ccnn34)cc2)no1` [Cpd 102, (E)-3-(4-(8-Morpholino-2-(2-(quinolin-2-yl)vinyl)imidazo[1,2-b]pyridazin-3-yl)phenyl)-1,2,4-oxadiazol-5(4H)-one], the IC50 is 4 nM in data set [1] and 5 nM in data set [3]. The values for the concentration at 2 h in data set [4] (brain) and in data set [4] (plasma) were 0 ng/g and 155 ng/mL, respectively. The Kp at 2 h in data set [4] amounted to 0.

Consider `CS(=O)(=O)NC(=O)c1ccc(-c2c(/C=C/c3ccc4ccccc4n3)nc3c(N4CCOCC4)ccnn23)cc1` [compound 39, (E)-N-(Methylsulfonyl)-4-(8-morpholino-2-(2-(quinolin-2-yl)vinyl)imidazo[1,2-b]pyridazin-3-yl)benzamide], for which the IC50 amounted to 5 nM in data set [1] and 3 nM in data set [3]. Also, the concentration at 2 h in data set [4] (brain) is 0 ng/g; in data set [4] (plasma) it was 147 ng/mL. Also, the concentration ratio (Kp) at 2 h in data set [4] came to 0.
